Data as given in US6376510B1, “Neuromuscular relaxants” (Newlaxant LLC, priority 1997, dated 2002).
Blank lines part the entries; values can stand above or below the compound they belong to.

How the values were obtained:
[1] = test system: anesthetized rats (evoked responses of anterior tibial muscle); assay: In vivo neuromuscular block and cardiovascular side effects, anesthetized rat (Example 8, Table 3); conditions: rat; for VB (vagal block) / ΔBP (change in arterial blood pressure) / ΔH (change in heart rate): in vivo; for ED50: intravenous dose causing 50% neuromuscular block; for RI (recovery index): spontaneous recovery, 25-75% neuromuscular response; for Onset: time to 80-85% neuromuscular block
Outline: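 Pentobarbital-anesthetized (i.p.), ventilated adult male rats given saline-dissolved agents i.v.; anterior tibial EMG responses to supramaximal single or train-of-four sciatic/peroneal stimuli, plus 0.1 or 1 Hz stimulation. Doses for 50%, 80%, 90% block derived. Onset: minutes to 80-85% block; RI: 25-75% spontaneous recovery; vagal block, heart rate and blood pressure changes (%) at 80-85% blocking dose.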

[2] = test system: anesthetized cats (evoked responses of anterior tibial muscle); assay: animal or person; conditions: for ED50 / RI (recovery index) / Onset: cat; for ED50: intravenous dose causing 50% neuromuscular block; for RI (recovery index): spontaneous recovery, 25-75% neuromuscular response; for Onset: time to 80-85% neuromuscular block; for ΔBP (change in arterial blood pressure) / ΔH (change in heart rate) / VB (vagal block): in vivo
Text: a) Adult, male albino rats were anesthetized with pentobarbital injected intraperitoneally. The trachea was cannulated for artificial respiration via a small animal respirator. The carotid artery was cannulated for recording blood pressure via a transducer and heart rate by a cardiotachograph on a polygraph. One external jugular vein was cannulated for i.v. drug administration. Neuromuscular function was monitored by electromyography, recording evoked responses from the anterior tibial muscle as a result of supramaximal nerve stimuli consisting of single or “train-of-four” rectangular pulses of 0.1-0.2 msec duration every 10-12 seconds, delivered to the sciatic or common peroneal nerve by a laboratory nerve stimulator. Another mode of stimulation included repeated single stimuli delivered at 0.1 Hz or 1 Hz. […] The agents were dissolved in physiologic saline and injected intravenously at appropriate time intervals. The intensity, onset, and duration of neuromuscular block and its type were determined with each agent. Through administering several doses, the doses corresponding to 50%, 80% and 90% neuromuscular block were determined. All agents were compared with selected standard neuromuscular blocking compounds, e.g. succinylcholine, pancuronium, mivacurium, or rocuronium.
(§1) Onset=time in minutes to 80-85% neuromuscular block.
(§2) RI=recovery index, minutes, spontaneous recovery, 25-75% neuromuscular response.
(§3) VB=vagal block, %, at 80-85% neuromuscular blocking dose.
ΔHR=change in heart rate, %, at 80-85% neuromuscular blocking dose.
ΔBP=change in arterial blood pressure, %, at 80-85% neuromuscular blocking dose.
b) Adult cats were anesthetized with a mixture of 70 mg/kg alpha chloralose and 0.5 g/kg ethylurethane intraperitoneally. One thigh was fixed in a vertical position by means of a pin at the lower end of the femur. Needle electrodes were placed on the sciatic or the common peroneal nerve. A tendon of the anterior tibial muscle was attached to a force transducer and the muscle responses evoked, as described under a), were recorded. Both electromyographic and mechanomyographic responses can be quantified. Blood pressure and heart rate changes were recorded from appropriately cannulated arteries via a blood pressure transducer and cardiotachograph.

[3] = test system: anesthetized juvenile pigs; assay: animal or person; format: in vivo; conditions: pig; for VB (vagal block) / ΔBP (change in arterial blood pressure) / ΔH (change in heart rate): in vivo; for ED50: intravenous dose causing 50% neuromuscular block; for RI (recovery index): spontaneous recovery, 25-75% neuromuscular response; for Onset: time to 80-85% neuromuscular block
Outline: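 Electromyographic and mechanomyographic responses quantified. Monkeys sedated with intramuscular ketamine, then general anesthesia with intravenous pentobarbital and propofol; juvenile pigs induced with inhaled halothane.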

[4] = test system: anesthetized monkeys; assay: In vivo neuromuscular block and cardiovascular side effects, monkey (Example 8, Table 6); conditions: for ΔBP (change in arterial blood pressure) / ΔH (change in heart rate): in vivo; for ED50: intravenous dose causing 50% neuromuscular block; for RI (recovery index): spontaneous recovery, 25-75% neuromuscular response; for Onset: time to 80-85% neuromuscular block
Text: Both electromyographic and mechanomyographic responses can be quantified.
The techniques described under a) and b) were employed in other species as needed with the modification that juvenile pigs were initially anesthetized with inhalation of halothane (Table 5) and monkeys were initially sedated with intramuscular ketamine injections prior to inducing and maintaining general anesthesia using pentobarbital and propofol administered intravenously (Table 6).

[5] = test system: rabbits; assay: In vivo neuromuscular block and cardiovascular side effects, rabbit (Example 8, Table 7); conditions: for ΔBP (change in arterial blood pressure) / ΔH (change in heart rate): in vivo; for ED50: intravenous dose causing 50% neuromuscular block; for RI (recovery index): spontaneous recovery, 25-75% neuromuscular response; for Onset: time to 80-85% neuromuscular block
[6] = test system: dogs; assay: animal or person; format: in vivo; conditions: dog; for ΔBP (change in arterial blood pressure) / ΔH (change in heart rate): in vivo; for ED50: intravenous dose causing 50% neuromuscular block; for RI (recovery index): spontaneous recovery, 25-75% neuromuscular response; for Onset: time to 80-85% neuromuscular block
[7] = test system: anesthetized rats (evoked responses of anterior tibial muscle); assay: Muscle relaxant (neuromuscular blocking) properties, anesthetized rat (Example 9, Table 9); conditions: rat; for ED50: intravenous dose causing 50% neuromuscular block, spread in brackets; for RI (recovery index): spontaneous recovery, 25-75% neuromuscular response; for Onset: time to 80-85% neuromuscular block; for % VB at ED80 nmb (vagal block) / BP (change in arterial blood pressure) / HR (change in heart rate): in vivo
Text: The data on muscle relaxant action were obtained on anesthetized rats, and when indicated, also on juvenile pigs
Adult, male albino rats were anesthetized with pentobarbital injected intraperitoneally. Juvenile, Duroc pigs 9-12 kg body weight were anesthetized with Chloralose Nembutal sodium mixture intraperitoneally after deep sedation with inhaled halothane. The trachea was cannulated for artificial respiration via a small animal respirator. The carotid artery was cannulated for recording blood pressure via a transducer and heart rate by a cardiotachograph on a polygraph. One external jugular vein was cannulated for i.v. drug administration. Neuromuscular function was monitored by electromyography, recording evoked responses from the anterior tibial muscle as a result of supramaximal nerve stimuli consisting of single or “train-of-four” rectangular pulses of 0.1-0.2 msec duration every 10-12 seconds, delivered to the sciatic or common peroneal nerve by a laboratory nerve stimulator. Another mode of stimulation included repeated single stimuli delivered at 0.1 Hz or 1 Hz. […] The agents were dissolved in physiologic saline and injected intravenously at appropriate time intervals. The intensity, onset, and duration of neuromuscular block and its type were determined with each agent. Through administering several doses, the doses corresponding to 50%, 80% and 90% neuromuscular block were determined. All agents were compared with selected standard neuromuscular blocking compounds, e.g., rocuronium.
as §1, §2, §3
HR=change in heart rate, %, at 80-85% neuromuscular blocking dose.
BP=change in arterial blood pressure, %, at 80-85% neuromuscular blocking dose.

Compound: CC(=O)Oc1ccc(C[N+]2(C)C3CCCC2CC(OC(=O)C2CCC2C(=O)OC2CC4CCCC(C2)[N+]4(C)Cc2ccc(OC(C)=O)c(OC(C)=O)c2)C3)cc1OC(C)=O.[Br-].[Br-] (centres unmarked) [bis[N-(3,4-diacetoxybenzyl)granataninium-3-yl]cyclobutane-1,2-dicarboxylate dibromide]
VB (vagal block) [1]: 2%
ΔBP (change in arterial blood pressure) [1]: 0%
ΔH (change in heart rate) [1]: 0%
ED50 [1]: 0.133 mg/kg
RI (recovery index) [1]: 0.4 min
Onset [1]: 0.5 min
ED50 [2]: 0.4 mg/kg
RI (recovery index) [2]: 0.5 min
Onset [2]: 0.6 min
ΔBP (change in arterial blood pressure) [2]: 0%
ΔH (change in heart rate) [2]: 0%
VB (vagal block) [3]: 15%
ΔBP (change in arterial blood pressure) [3]: 0%
ΔH (change in heart rate) [3]: 0%
ED50 [3]: 0.1 mg/kg
RI (recovery index) [3]: 1 min
Onset [3]: 0.8 min
ΔBP (change in arterial blood pressure) [4]: 0%
ΔH (change in heart rate) [4]: 0%
ED50 [4]: 0.086 mg/kg
RI (recovery index) [4]: 0.4 min
Onset [4]: 0.7 min
ΔBP (change in arterial blood pressure) [5]: 0%
ΔH (change in heart rate) [5]: 0%
ED50 [5]: 0.115 mg/kg
RI (recovery index) [5]: 0.6 min
Onset [5]: 0.6 min
ΔBP (change in arterial blood pressure) [6]: −5%
ΔH (change in heart rate) [6]: 27%
ED50 [6]: 0.15 mg/kg
RI (recovery index) [6]: 0.7 min
Onset [6]: 0.75 min

Compound: CC(=O)Oc1ccc(C[N+]2(C)C3CCCC2CC(OC(=O)CCCC(=O)OC2CC4CCCC(C2)[N+]4(C)Cc2ccc(OC(C)=O)c(OC(C)=O)c2)C3)cc1OC(C)=O.[Br-].[Br-] (centres unmarked) [bis[N-(3,4-diacetoxybenzyl)granataninium-3-yl]glutarate dibromide]
VB (vagal block) [1]: 0%
ΔBP (change in arterial blood pressure) [1]: 0%
ΔH (change in heart rate) [1]: 0%
ED50 [1]: 0.17 mg/kg
RI (recovery index) [1]: 0.45 min
Onset [1]: 0.6 min
ED50 [2]: 0.7 mg/kg
RI (recovery index) [2]: 0.4 min
Onset [2]: 0.7 min
VB (vagal block) [2]: 60%
ΔBP (change in arterial blood pressure) [2]: −50%
ΔH (change in heart rate) [2]: 0%
VB (vagal block) [3]: 40%
ΔBP (change in arterial blood pressure) [3]: 0%
ΔH (change in heart rate) [3]: 0%
ED50 [3]: 0.235 mg/kg
RI (recovery index) [3]: 0.9 min
Onset [3]: 0.8 min
ΔBP (change in arterial blood pressure) [4]: 0%
ΔH (change in heart rate) [4]: 0%
ED50 [4]: 0.075 mg/kg
RI (recovery index) [4]: 0.4 min
Onset [4]: 0.7 min
ΔBP (change in arterial blood pressure) [5]: 0%
ΔH (change in heart rate) [5]: 0%
ED50 [5]: 0.165 mg/kg
RI (recovery index) [5]: 0.55 min
Onset [5]: 0.65 min
ΔBP (change in arterial blood pressure) [6]: −18%
ΔH (change in heart rate) [6]: 50%
ED50 [6]: 0.225 mg/kg
RI (recovery index) [6]: 0.6 min
Onset [6]: 0.65 min

Compound: CC(=O)Oc1ccc(C[N+]2(C)C3CCCC2CC(OC(=O)CCCCCCC(=O)OC2CC4CCCC(C2)[N+]4(C)Cc2ccc(OC(C)=O)c(OC(C)=O)c2)C3)cc1OC(C)=O.[Br-].[Br-] (centres unmarked) [bis[N-(3,4-diacetoxybenzyl)granataninium-3-yl]suberate dibromide]
VB (vagal block) [1]: 60%
ΔBP (change in arterial blood pressure) [1]: 0%
ΔH (change in heart rate) [1]: 0%
ED50 [1]: 0.45 mg/kg
RI (recovery index) [1]: 0.35 min
Onset [1]: 0.4 min
ED50 [2]: 0.7 mg/kg
RI (recovery index) [2]: 0.5 min
Onset [2]: 0.6 min
VB (vagal block) [2]: 80%
ΔBP (change in arterial blood pressure) [2]: −20%
ΔH (change in heart rate) [2]: 0%
VB (vagal block) [3]: 80%
ΔBP (change in arterial blood pressure) [3]: 0%
ΔH (change in heart rate) [3]: 0%
ED50 [3]: 0.25 mg/kg
RI (recovery index) [3]: 0.8 min
Onset [3]: 0.6 min
ΔBP (change in arterial blood pressure) [4]: 0%
ΔH (change in heart rate) [4]: 0%
ED50 [4]: 0.2 mg/kg
RI (recovery index) [4]: 0.4 min
Onset [4]: 0.9 min
ΔBP (change in arterial blood pressure) [5]: 0%
ΔH (change in heart rate) [5]: 0%
ED50 [5]: 0.475 mg/kg
RI (recovery index) [5]: 0.55 min
Onset [5]: 0.5 min
ΔBP (change in arterial blood pressure) [6]: −55%
ΔH (change in heart rate) [6]: 60%
ED50 [6]: 0.25 mg/kg
RI (recovery index) [6]: 0.45 min
Onset [6]: 0.8 min

Compound: Bis[4-dimethylaminocyclohexyl]fumarate bis(4-acetoxy-3-methoxybenzyl bromide)
ED50 [7]: 2138 (128) μg/kg
RI (recovery index) [7]: 0.65 (0.05) min
Onset [7]: 1.3 (0.05) min

Compound: Bis[4-dimethylaminocyclohexyl]glutarate bis(benzyl bromide) [reference compound]
ED50 [7]: 2500 µg/kg
RI (recovery index) [7]: 1.65 (0.1) min
Onset [7]: 1.6 (0.1) min

Compound: Bis[N-(3,4-diacetoxybenzyl)-6-azabicyclo[3.2.1]octanium-3-yl]glutarate dibromide
% VB at ED80 nmb (vagal block) [7]: 19 (4) %
BP (change in arterial blood pressure) [7]: 0%
HR (change in heart rate) [7]: 0%
ED50 [7]: 440 (39) μg/kg
RI (recovery index) [7]: 0.4 (0.05) min
Onset [7]: 0.55 (0.05) min

% VB at ED80 nmb (vagal block) [7]: 63 (7) %
Compound: Bis[N-(3,4-dipropionyloxybenzyl)-6-azabicyclo[3.2.1]octanium-3-yl]glutarate dibromide
BP (change in arterial blood pressure) [7]: +8 (2) %
HR (change in heart rate) [7]: 0%
ED50 [7]: 1002 (174) μg/kg
RI (recovery index) [7]: 0.47 (0.03) min
Onset [7]: 0.5 (0.03) min

Compound: Bis[N-(4-acetoxy-3,5-dimethoxybenzyl)-6-azabicyclo[3.2.1]octanium-3-yl]glutarate dibromide
% VB at ED80 nmb (vagal block) [7]: 75 (5) %
BP (change in arterial blood pressure) [7]: +21 (2) %
HR (change in heart rate) [7]: 0%
ED50 [7]: 3050 (193) μg/kg
RI (recovery index) [7]: 1.4 (0.1) min
Onset [7]: 0.75 (0.05) min

Compound: Bis[N-(4-acetoxy-3-methoxybenzyl)-6-azabicyclo[3.2.1]octanium-3-yl]-glutarate dibromide
% VB at ED80 nmb (vagal block) [7]: 68 (96) %
BP (change in arterial blood pressure) [7]: +12 (5) %
HR (change in heart rate) [7]: 0%
ED50 [7]: 1425 (161) μg/kg
RI (recovery index) [7]: 0.65 (0.05) min
Onset [7]: 0.53 (0.04) min
